Data from patent US20240360126A1, “PYRAZOLO[3,4-B]PYRIDINE COMPOUNDS FOR THE TREATMENT OF AUTOIMMUNE DISEASE” (Hoffmann-La Roche Inc., priority 2021, published 2024).
pIC50: −log10 of the molar value.

Experiments:
[1] = Human microsome stability assay; format: in vitro ADME; details: 1 μM test compound, 0.5 mg/mL liver microsomal protein, 37° C.
Experimental: The human microsomal stability assay is used for early assessment of metabolic stability of a test compound in human liver microsomes.
Human liver microsomes (Cat. NO.: 452117, Corning, USA; Cat. NO.:H2610, Xenotech, USA) were preincubated with test compound for 10 minutes at 37° C. in 100 mM potassium phosphate buffer, pH 7.4. The reactions were initiated by adding NADPH regenerating system.
The final incubation mixtures contained 1 μM test compound, 0.5 mg/mL liver microsomal protein, 1 mM MgCl2, 1 mM NADP, 1 unit/mL isocitric dehydrogenase and 6 mM isocitric acid in 100 mM potassium phosphate buffer, pH 7.4. After incubation times of 0, 3, 6, 9, 15 and 30 minutes at 37° C., 300 μL of cold acetonitrile (including internal standard) was added to 100 μL incubation mixture to terminate the reaction. Following precipitation and centrifugation, the amount of compound remaining in the samples were determined by LC-MS/MS. Controls of no NADPH regenerating system at zero and 30 minutes were also prepared and analyzed.

[2] = molecular target: T1, TLR9 (Homo sapiens, UniProt Q9NR96); test: Human PBMC cell-based assay; parameters: These cells express TLR7, TLR8, or TLR9, and therefore are natural responders to respective ligand stimulation; endogenous in cells; host or cells: human PBMC from healthy donor whole blood; details: CpG ODN 2216 at 1 μM, read-out: hPBMC/TLR9 IC50
T1 sequence (Q9NR96 26-1032): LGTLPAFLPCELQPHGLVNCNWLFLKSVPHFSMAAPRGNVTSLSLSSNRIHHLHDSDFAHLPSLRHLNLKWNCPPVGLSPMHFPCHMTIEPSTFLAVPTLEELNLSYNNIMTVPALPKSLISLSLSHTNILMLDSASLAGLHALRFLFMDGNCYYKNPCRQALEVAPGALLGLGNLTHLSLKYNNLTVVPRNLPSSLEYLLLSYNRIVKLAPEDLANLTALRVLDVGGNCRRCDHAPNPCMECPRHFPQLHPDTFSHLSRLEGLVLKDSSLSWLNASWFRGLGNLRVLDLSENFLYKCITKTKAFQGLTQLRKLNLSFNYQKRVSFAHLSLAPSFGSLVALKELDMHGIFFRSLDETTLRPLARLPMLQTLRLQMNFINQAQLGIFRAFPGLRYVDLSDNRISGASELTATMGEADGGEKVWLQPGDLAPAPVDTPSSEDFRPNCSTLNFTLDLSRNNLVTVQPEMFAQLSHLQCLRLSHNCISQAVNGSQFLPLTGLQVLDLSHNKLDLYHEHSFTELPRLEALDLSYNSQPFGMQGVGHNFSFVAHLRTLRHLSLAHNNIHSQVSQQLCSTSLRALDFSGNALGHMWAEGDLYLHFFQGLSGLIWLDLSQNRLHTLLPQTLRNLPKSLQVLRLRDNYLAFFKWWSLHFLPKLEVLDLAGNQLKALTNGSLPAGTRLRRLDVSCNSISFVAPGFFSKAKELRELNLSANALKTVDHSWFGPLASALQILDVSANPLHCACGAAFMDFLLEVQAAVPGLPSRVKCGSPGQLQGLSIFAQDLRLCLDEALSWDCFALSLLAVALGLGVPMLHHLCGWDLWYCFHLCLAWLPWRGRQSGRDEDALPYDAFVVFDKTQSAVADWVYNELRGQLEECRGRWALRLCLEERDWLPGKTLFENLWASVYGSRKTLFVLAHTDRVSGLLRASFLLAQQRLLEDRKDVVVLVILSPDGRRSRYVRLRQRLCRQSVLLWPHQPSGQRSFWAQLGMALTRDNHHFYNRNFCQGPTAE
Text: Unlike the HEK reporter cell lines, human peripheral blood mononuclear cell (PBMC) represents primary human immune cells in blood mainly consisting of lymphocytes, monocytes, and dendritic cells. These cells express TLR7, TLR8, or TLR9, and therefore are natural responders to respective ligand stimulation. Upon activation of these TLRs, PBMCs secrete similar cytokines and chemokines in vitro and in vivo, and therefore the in vitro potency of a TLR7/8/9 antagonist in human PBMC is readily translatable to its pharmacodynamics response in vivo.
Human peripheral blood mononuclear cells (PBMC) were isolated from freshly-drawn lithium-heparinized (Lithium Heparin Plus blood Collection tube, BD Vacutainer®) healthy donor whole blood by density gradient (Ficoll-Paque™ PLUS, GE Healthcare life Sciences). Briefly, […] was diluted with 25 mL PBS (without Ca^2+, Mg^2+) in a 50 mL conical tube with porous barrier (Leucosep tube, Greiner bio-one), where 15.5 mL Ficoll-Paque was under laid after spinning. Tubes were centrifuged for 20 minutes at 800×g (1946 rpm) with the brake in the off position, and PBMC were collected from the buffy coat. Cells were then washed twice in PBS, and red blood cells were lysed by suspension in 2 mL (Red Blood Cell Lysis Buffer, Alfa Aesar) for 5-10 minutes at room temperature. After a final wash in PBS, PBMC were resuspended at a final concentration of 2×10^6 cells/mL in RPMI-1640 media with GlutaMAX™ (Gibco) supplemented with 10% Fetal Bovine Serum (Sigma) and plated at 150 μL/well (3×10^5 cells/well) in tissue culture treated round bottom 96-well plates (Corning Incorporated). Antagonist compounds (compounds of this invention) solubilized and serial diluted in 100% DMSO were added in duplicate to cells to yield a final concentration of 1% DMSO (v/v). PBMC were incubated with antagonist compounds for 30 minutes at 37° C., 5% CO2 before adding various TLR agonist reagents in 48 μL complete media per well as follows (final concentrations indicated): CpG ODN 2216 (InvivoGen) at 1 μM for TLR9, ORN 06/LyoVec (InvivoGen) at […] for TLR8 and R848 (InvivoGen) at 1 μg/mL for TLR7 and TLR8. PBMC were incubated overnight at 37° C. with 5% C02. Cell culture supernatants were collected, and levels of various human cytokines were assessed by Luminex assay (ProcartaPlex™ Multiplex Immunoassay, Invitrogen) or ELISA procedure according to the manufacturer's recommended protocol (eBioscience, ThermoFisher Scientific). Viability of the cells was also checked with Cell Viability Assay (CellTiter Glo® Luminescent Cell Viability Assay, Promega).

## Cc1cc(N2CCC(c3cnc(N4CCNCC4)cc3C)[C@H](C)C2)c2cnn(C)c2n1 (single isomer, unassigned) [Example 20, 1,6-dimethyl-4-[cis-3-methyl-4-(4-methyl-6-piperazin-1-yl-3-pyridyl)-1-piperidyl]pyrazolo[3,4-b]pyridine]
[1]
  Clearance of Human microsome: 9.0 mL/min/kg

## Cc1cc(N2CCC(c3cnc(N4CCNCC4)cc3C)[C@H](C)C2)c2cnn(C)c2n1 (single isomer, unassigned) [Example 21, 1,6-dimethyl-4-[trans-3-methyl-4-(4-methyl-6-piperazin-1-yl-3-pyridyl)-1-piperidyl]pyrazolo[3,4-b]pyridine]
[1]
  Clearance of Human microsome: 7.8 mL/min/kg
[2]
  pIC50: 6.07

## Cc1cc(N2CCC(c3ncc(N4CCNCC4)cc3C)[C@H](C)C2)c2cnn(C)c2n1 (single isomer, unassigned) [Example 25, 1,6-dimethyl-4-[trans-3-methyl-4-(3-methyl-5-piperazin-1-yl-2-pyridyl)-1-piperidyl]pyrazolo[3,4-b]pyridine]
[2]
  pIC50: 6.49

## Cc1cc(N2CCC(c3ccc(N4CCNCC4)cn3)CC2)c2cnn(C)c2n1 [Example 2, 1,6-dimethyl-4-[4-(5-piperazin-1-yl-2-pyridyl)-1-piperidyl]pyrazolo[3,4-b]pyridine]
[1]
  Clearance of Human microsome: 8.2 mL/min/kg
[2]
  pIC50: 6.33

## Cc1cc(N2CCC(c3cnc(N4CCNCC4)cn3)CC2)c2cnn(C)c2n1 [Example 3, 1,6-dimethyl-4-[4-(5-piperazin-1-ylpyrazin-2-yl)-1-piperidyl]pyrazolo[3,4-b]pyridine]
[1]
  Clearance of Human microsome: 9.3 mL/min/kg

## Cc1cc(N2CCNCC2)cnc1C1CCN(c2ccnc3c2cnn3C)CC1 [Example 5, 1-methyl-4-[4-(3-methyl-5-piperazin-1-yl-2-pyridyl)-1-piperidyl]pyrazolo[3,4-b]pyridine]
[1]
  Clearance of Human microsome: 9.1 mL/min/kg

## Cc1cc(N2CCNCC2)ncc1C1CCN(c2ccnc3c2cnn3C)CC1 [Example 6, 1-methyl-4-[4-(4-methyl-6-piperazin-1-yl-3-pyridyl)-1-piperidyl]pyrazolo[3,4-b]pyridine]
[1]
  Clearance of Human microsome: 9.3 mL/min/kg
[2]
  pIC50: 6.21

## Cc1cc(N2CCC(c3ncc(N4CCNCC4)cc3C)CC2)c2cnn(C)c2n1 [Example 7, 1,6-dimethyl-4-[4-(3-methyl-5-piperazin-1-yl-2-pyridyl)-1-piperidyl]pyrazolo[3,4-b]pyridine]
[1]
  Clearance of Human microsome: 6.2 mL/min/kg
[2]
  pIC50: 6.38

## CCc1cc(N2CCNCC2)cnc1C1CCN(c2cc(C)nc3c2cnn3C)CC1 [Example 13, 4-[4-(3-ethyl-5-piperazin-1-yl-2-pyridyl)-1-piperidyl]-1,6-dimethyl-pyrazolo[3,4-b]pyridine]
[1]
  Clearance of Human microsome: 7.2 mL/min/kg

## COc1cc(N2CCNCC2)cnc1C1CCN(c2cc(C)nc3c2cnn3C)CC1 [Example 14, 4-[4-(3-methoxy-5-piperazin-1-yl-2-pyridyl)-1-piperidyl]-1,6-dimethyl-pyrazolo[3,4-b]pyridine]
[1]
  Clearance of Human microsome: 6.7 mL/min/kg
[2]
  pIC50: 6.47

## CO[C@@H]1CN(c2cnc([C@@H]3CCN(c4cc(C)nc5c4cnn5C)C[C@H]3C)c(C)c2)C[C@H]1N [Example 26, (3R,4R)-1-[6-[(3S,4R)-1-(1,6-dimethylpyrazolo[3,4-b]pyridin-4-yl)-3-methyl-4-piperidyl]-5-methyl-3-pyridyl]-4-methoxy-pyrrolidin-3-amine]
[2]
  pIC50: 6.48

## Cc1cc(N2CC[C@@H](c3ncc(N4CC5(CNCCO5)C4)cc3C)[C@H](C)C2)c2cnn(C)c2n1 [Example 27, 2-[6-[(3S,4R)-1-(1,6-dimethylpyrazolo[3,4-b]pyridin-4-yl)-3-methyl-4-piperidyl]-5-methyl-3-pyridyl]-5-oxa-2,8-diazaspiro[3.5]nonane]
[1]
  Clearance of Human microsome: 9.1 mL/min/kg
[2]
  pIC50: 6.42

## Cc1cc(N2CC[C@@H](c3ncc(N4CC[C@@H](N)[C@H](F)C4)cc3C)[C@H](C)C2)c2cnn(C)c2n1 [Example 31, (3R,4R)-1-[6-[(3S,4R)-1-(1,6-dimethylpyrazolo[3,4-b]pyridin-4-yl)-3-methyl-4-piperidyl]-5-methyl-3-pyridyl]-3-fluoro-piperidin-4-amine]
[2]
  pIC50: 6.39

## Cc1cc(N2CC[C@@H](c3ccc(N4CCNCC4)cn3)[C@H](C)C2)c2cnn(C)c2n1 [Example 34, 1,6-dimethyl-4-[(3S,4R)-3-methyl-4-(5-piperazin-1-yl-2-pyridyl)-1-piperidyl]pyrazolo[3,4-b]pyridine]
[1]
  Clearance of Human microsome: 9.8 mL/min/kg

## COC[C@H]1CN(c2ccc([C@H]3CCN(c4cc(C)nc5c4cnn5C)C[C@@H]3C)nc2)CCN1 [Example 37, 4-[(3R,4S)-4-[5-[(3R)-3-(methoxymethyl)piperazin-1-yl]-2-pyridyl]-3-methyl-1-piperidyl]-1,6-dimethyl-pyrazolo[3,4-b]pyridine]
[1]
  Clearance of Human microsome: 6.2 mL/min/kg

## Cc1cc(N2CC[C@H](c3ccc(N4CC5(CNCCO5)C4)cn3)[C@@H](C)C2)c2cnn(C)c2n1 [Example 38, 2-[6-[(3R,4S)-1-(1,6-dimethylpyrazolo[3,4-b]pyridin-4-yl)-3-methyl-4-piperidyl]-3-pyridyl]-5-oxa-2,8-diazaspiro[3.5]nonane]
[1]
  Clearance of Human microsome: 7.8 mL/min/kg

## CO[C@H]1CN(c2ccc([C@H]3CCN(c4cc(C)nc5c4cnn5C)C[C@@H]3C)nc2)CC[C@@H]1N [Example 39, (3S,4S)-1-[6-[(3R,4S)-1-(1,6-dimethylpyrazolo[3,4-b]pyridin-4-yl)-3-methyl-4-piperidyl]-3-pyridyl]-3-methoxy-piperidin-4-amine]
[1]
  Clearance of Human microsome: 6.7 mL/min/kg

## Cc1cc(N2CC[C@H](c3ccc(N4CC[C@@H](N)[C@H](F)C4)cn3)[C@@H](C)C2)c2cnn(C)c2n1 [Example 41, (3R,4R)-1-[6-[(3R,4S)-1-(1,6-dimethylpyrazolo[3,4-b]pyridin-4-yl)-3-methyl-4-piperidyl]-3-pyridyl]-3-fluoro-piperidin-4-amine]
[1]
  Clearance of Human microsome: 7.2 mL/min/kg
